Where “and” joins values, the source holds several entries; their conditions need not be identical. Equal entries are not always repeated.
Tests used:
[1] = system: CEA-positive (LS174T) tumor; assay: Three-step PRIT (bsAb, dextran-DOTA-Y clearing agent, radiolabeled DOTA) biodistribution in xenograft mice; type: in vivo; conditions: for tumor uptake/activity, antigen-positive LS174T tumor: PRIT protocol with bsAb and dextran-DOTA-Y
Experimental: (§1) Radiolabeling. DOTA compounds were dissolved at 0.5 mM in ammonium acetate pH 5.6. 1-2 mCi ^177LuCl3 (PerkinElmer, Waltham, Mass.) or ^111InCl3 (Cardinal Health, Dublin, Ohio) were added to the metal chelate and incubated for 1-2 h at 85-95 C. The radiolabeled compounds were purified by RP-HPLC (Humblet et al., Contrast Media Mol. Imaging. 1:196-211, 2006; Misra et al., J. Nucl. Med. 48:1379-1389, 2007) with gamma detection on a 4.6×75 mm Symmetry C18 column using a linear gradient from 0% to 40% B over 15 minutes, at a flow rate of 1 mL/min, where A=10 mM TEAA and B=methanol. The purified compounds were dried under vacuum, resuspended in saline, and filter-sterilized.
(§2) Animal models. All animal handling was performed in accordance with BIDMC IACUC guidelines. Male NCRU-nu/nu mice were purchased from Taconic Farms (Germantown, N.Y.). For biodistribution and tumor uptake, 100-150 μCi ^177Lu- or ^111In-labeled hapten was injected intravenously into the mice. Blood was collected from the tail vein using micro-capillary tubes and counted on a model 1470 Wallac Wizard™ (Perkin Elmer, Wellesley, Mass.) 10-detector gamma counter. Mice were euthanized by intraperitoneal injection of pentobarbital followed by cervical dislocation, a method consistent with the recommendations of the Panel on Euthanasia of the American Veterinary Medical Association. Organs and tumors were resected, washed in PCS three times, weighed, and counted as described above.
We next tested a protocol involving all three reagents to determine the efficacy of our engineered PRIT system. […] After an additional 1 h, 100-150 μCi ^177Lu-DOTA was injected intravenously. At 4 h post-injection of radiolabeled DOTA, tumor uptake was 7.44+/−0.41% ID/g in the antigen-positive tumor, 84-fold higher than the tumor uptake observed for ^177Lu-DOTA alone. Activity was also higher in non-tumor tissue due to binding of ^177Lu-DOTA to residual bsAb in the extravascular compartment. Tumor uptake in the antigen-negative tumor was 9.82+/−0.35% ID/g at 4 h, similar to the antigen-positive tumor due to nonspecific uptake from enhanced permeability and retention (EPR) of the bsAb. […] The LS174T tumor to blood ratio increased from 18+/−2 at 4 h to 380+/−90 at 24 h and was greater than 450 at 48 h. […] The LS174T tumor to kidney ratio increased from approximately 8 at 4 h to about 20 at 24 and 48 h. SPECT/CT images confirmed the quantitative biodistribution data with high PSECT signal in the CEA-positive tumors, lower signal in the CEA-negative tumor and no observable signal in non-tumor tissue.
The pretargeted protocol described above was used to analyze the effect of affinity on the tumor uptake of radiolabeled DOTA. […] The 24 h organ/tissue biodistribution was determined in tumor-bearing mice with each of the four radiolabeled DOTA compounds. […] The activity in the C6 antigen-negative tumor increased with affinity, presumably due to nonspecific uptake of bsAb. The activity in the non-tumor tissues is also higher for the higher affinity compounds due to the higher affinity binding to residual bsAb.

[2] = Organ uptake of DOTA-based compounds in normal CD1 mice; type: in vivo; conditions: 4 h p.i., compared to radiolabeled DOTA-biotin and DOTA-Bn
CEA-negative (C6) tumor = assay: Three-step PRIT (bsAb, dextran-DOTA-Y clearing agent, radiolabeled DOTA) biodistribution in xenograft mice; type: in vivo; conditions: PRIT protocol
Experimental: as §1, §2
We next tested a protocol involving all three reagents to determine the efficacy of our engineered PRIT system. […] After an additional 1 h, 100-150 μCi ^177Lu-DOTA was injected intravenously. At 4 h post-injection of radiolabeled DOTA, tumor uptake was 7.44+/−0.41% ID/g in the antigen-positive tumor, 84-fold higher than the tumor uptake observed for ^177Lu-DOTA alone. […] SPECT/CT images confirmed the quantitative biodistribution data with high PSECT signal in the CEA-positive tumors, lower signal in the CEA-negative tumor and no observable signal in non-tumor tissue.

[3] = MIRD dosimetry estimate from PRIT mouse biodistribution; type: in vivo; conditions: 70 kg man
Experimental: Dosimetry. Radiation doses absorbed by normal tissues other than the red marrow were calculated according to the MIRD scheme. Percent injected activity in tumor, kidneys, liver, blood, and whole-body were calculated from activity measurements. The activity at time 0 was assumed to be 4% ID/g in the kidney and liver, 50% ID/g in the blood, 0% ID/g in the tumor and 100% in the whole-body. Isotope decay-adjusted activity was integrated over time, with a conservative assumption that the 48 h organ % ID remained constant thereafter. S values for ^90Y and ^177Lu were used to calculate dosimetry estimates in an adult male reference (Stabin and Siegel, Health Phys. 85:294-310, 2003). The red marrow dose was calculated as described (Wessels et al., J. Nucl. Med. 45:1725-1733, 2004) from blood activity measurements. […] Tumor doses were calculated from self-dose only using S-factors for a unit density sphere of size 500 g (the average LS174T tumor size scaled by 2000).
From the PRIT organ biodistribution data, the radiation dose to the kidney, liver, red marrow, and antigen-positive tumor was estimated for a 70 kg person for ^90Y and ^177Lu. […] The estimated doses to the kidney, liver, and red marrow were calculated from both the self-dose and cross-dose, wherein the whole-body activity was used to determine the cross-dose. The estimated dose to the tumor was determined from self-dose only. […]

DOTA-Bn-biotin-Y [4] = assay: KD by titration of yeast surface-displayed scFv, flow cytometry; type: binding; conditions: hapten DOTA-Bn-Biotin, metal Y, 37° C., mean ± SD
Experimental: Briefly, yeast expressing an scFv clone on their surface were grown, washed with PBSA and incubated with various concentrations of DOTA-Bn-biotin-metal long enough to allow for at least a 95% approach to equilibrium. Generally, 5×10^5 induced cells were used for each concentration point. When antigen concentrations less than 10 pM were assayed, the titration was performed with 2.5×10^4 induced and 7.5×10^5 non-induced cells to ensure antigen excess over the scFv without requiring impractically large volumes. The addition of non-induced cells aids pelleting during centrifugation (Hackel et al., J. Mol. Biol. 381:1238-1252, 2008). When antigen concentrations greater than 100 nM were used, non-specific antigen binding to the yeast surface was taken into account. Yeast expressing an irrelevant scFv on their surface were treated in the same manner as the yeast displaying the scFv of interest, and mean total phycoeryhthrein fluorescence (MFUtot) due to non-specific binding was measured by flow cytometry and averaged over three replicates. This value was subtracted from the MFUtot for the yeast of interest, and the data was fit by least-squares regression.

DOTA-Bn-biotin-Y [5] = assay: Dissociation kinetics, yeast surface-displayed scFv; type: binding
Experimental: Dissociation Kinetics. To determine the dissociation rate, koff, for DOTA-Bn-biotin complexes, cells were induced and washed as above, and 1×10^7 cells were incubated in 1 mL PBSA with 1 nM DOTA-Bn-biotin-metal for 1 h to reach saturation. Subsequently, the yeast were washed with 1 mL PBSA, resuspended in 1 mL PBSA with 1 μM (excess) non-biotinylated antigen as competitor and split into 100 μL aliquots. These aliquots were incubated at 37° C. for different lengths of time, then washed with cold PBSA and left on ice. All samples were simultaneously stained with streptavidin-phycoerythrein for 10-20 min and analyzed by flow cytometry. The data was fit to the following equation by least squares regression, varying MFUmin, MFUrange and koff: MFUtot=MFUmin+MFUrangee^−k^off^t For nonbiotinylated antigens, the procedure was identical except that initial saturation was with the nonbiotinylated antigen and DOTA-Bn-biotin-metal was used as competitor. The data followed the expression MFUtot=MFUmin+MFUrange(1−e^−k^off^t)

DOTA-Bn-Y = assay: KD by competition with DOTA-Bn-biotin-Y, yeast surface-displayed scFv; type: binding; conditions: hapten DOTA-Bn, metal Y; mean ± SD
Experimental: (§3) KD Measurements for DOTA-metal and DOTA-Bn-metal. To determine the KD for scFv binding to nonbiotinylated haptens, the above protocol was modified to a competition-based assay as follows. […] Incubation, staining, and flow cytometry analysis was the same as that for biotinylated antigen. MFUtot as a function of the concentration of the nonbiotinylated antigen ([Ag]), a normalization constant (MFUrange), the minimal total mean fluorescence (MFUmin), the KD for DOTA-Bn-biotin-Y (KD, biot), DOTA-Bn-biotin-Y concentration ([Agbiot]), and the KD for the antigen of interest (KD) follows this modified equation:
(§4) [formula] The data was fit by least squares regression as before, varying MFUmin, MFUrange and KD.

DOTA-Gd = assay: as above; type: binding; conditions: hapten DOTA, metal Gd; mean ± SD
Experimental: as §3, §4

DOTA-Y = assay: as above; type: binding; conditions: hapten DOTA, metal Y; mean ± SD
Experimental: as §3, §4

DOTA-Bn-Ga = assay: as above; type: binding; conditions: hapten DOTA-Bn, metal Ga; mean ± SD
Experimental: as §3, §4

DOTA-Bn-Gd = assay: as above; type: binding; conditions: hapten DOTA-Bn, metal Gd; mean ± SD
Experimental: as §3, §4

DOTA-In = assay: as above; type: binding; conditions: hapten DOTA, metal In; mean ± SD
Experimental: as §3, §4

DOTA-Bn-Lu = assay: as above; type: binding; conditions: hapten DOTA-Bn, metal Lu; mean ± SD
Experimental: as §3, §4

DOTA-Bn-In = assay: as above; type: binding; conditions: hapten DOTA-Bn, metal In; mean ± SD
Experimental: as §3, §4

DOTA-Ga = assay: as above; type: binding; conditions: hapten DOTA, metal Ga; mean ± SD
Experimental: as §3, §4

DOTA-Lu = assay: as above; type: binding; conditions: hapten DOTA, metal Lu; mean ± SD
Experimental: as §3, §4

O=C([O-])CN1CCN(CC(=O)[O-])CCN(CC(=O)[O-])CCN(CC(=O)[O-])CC1.[111In+3] [^111In-DOTA]
LS174T tumor to kidney ratio ([1]; 24 h, PRIT protocol): 1.2+/−0.4
tumor uptake/activity, antigen-positive LS174T tumor ([1]; 24 h): 0.5+/−0.1 % ID/g

O=C([O-])CN1CCN(CC(=O)[O-])CCN(CC(=O)[O-])CCN(CC(=O)[O-])CC1.[177Lu+3].[H+] [^177Lu-DOTA]
LS174T tumor to blood ratio ([1]; 4 h, PRIT protocol): 18+/−2
LS174T tumor to kidney ratio ([1]; 4 h, PRIT protocol): approximately 8
tumor uptake relative to hapten alone ([1]; 4 h, antigen-positive tumor, versus ^177Lu-DOTA alone): 84 fold
tumor uptake, antigen-positive tumor ([1]; 4 h post-injection of radiolabeled DOTA, 500 μg bsAb, 250 μg dextran-DOTA-Y 24 h later, hapten 1 h later): 7.44+/−0.41 % ID/g
tumor uptake/activity, antigen-positive LS174T tumor ([1]; 24 h): ~14 % ID/g and 14.3+/−1.8 % ID/g
tumor uptake relative to hapten of ~1 nM affinity ([1]; 24 hours, affinity ~100 pM versus ~1 nM): 8 fold
tumor uptake relative to hapten of ~10 nM affinity ([1]; 24 hours, affinity ~100 pM versus ~10 nM): 28 fold
blood activity ([1]; 48 h, PRIT protocol): not measurable above background
liver and intestine uptake [2]: slightly lower
tumor uptake, antigen-negative tumor (CEA-negative (C6) tumor; 4 h): 9.82+/−0.35 % ID/g
tumor activity, antigen-negative tumor (CEA-negative (C6) tumor; 24 h): 4.23+/−0.54 % ID/g
tumor activity, antigen-negative tumor (CEA-negative (C6) tumor; 48 h): 2.89+/−2.28 % ID/g
estimated dose to the tumor ([3]; at a red marrow dose of 1.5 Gy, estimated from mouse biodistribution, self-dose only): 156 Gy
dose-limiting organ ([3]; predicted from radiation dose estimates): red marrow

B1: C8.2.5: high-affinity disulfide-stabilized DOTA-binding scFv affinity matured from 2D12.5; residues 1-244 are SEQ ID NO:12 (protein)
scFv: HVKLQESGPGLVQPSQSLSLTCTVSGFSLTDYGVHWVRQSPGKGLEWLGVIWSGGGTAYNTALISRLNIYRDNSKNQVFLEMNSLQAEDTAMYYCARRGSYPYNYFDAWGCGTTVTVSSGGGGSGGGGSGGGGSQAVVIQESALTTPPGETVTLTCGSSTGAVTASNYANWVQEKPDHCFTGLIGGHNNRPPGVPARFSGSLIGDKAALTIAGTQTEDEAIYFCALWYSDHWVIGGGTRLTVLGGSEQKLISEEDL
Kd (DOTA-Bn-biotin-Y [4]): 0.0082 ± 0.0019 nM
dissociation half-time (DOTA-Bn-biotin-Y [5]): over 5 hours
Kd (DOTA-Bn-Y): 0.0154 ± 0.002 nM
Kd (DOTA-Gd): 0.149 ± 0.006 nM
Kd (DOTA-Y): 0.103 ± 0.035 nM
Kd (DOTA-Bn-Ga): 52 ± 12 nM
Kd (DOTA-Bn-Gd): 0.034 ± 0.0053 nM
Kd (DOTA-In): 23.7 ± 3.7 nM
Kd (DOTA-Bn-Lu): 0.0108 ± 0.0025 nM
Kd (DOTA-Bn-In): 1.01 ± 0.04 nM
Kd (DOTA-Ga): 216 ± 26 nM
Kd (DOTA-Lu): 0.39 ± 0.014 nM

B2: 2D12.5ds: original 2D12.5 scFv with the addition of the intramolecular disulfide bond and removed glycosylation site (SEQ ID NO:2) (protein)
scFv: QVKLQESGPGLVQPSQSLSITCTVSGFSLTDYGVHWVRQSPGKGLEWLGVIWSGGGTAYTAAFISRLNIYKDNSKNQVFFEMNSLQAEDTAMYYCARRGSYPYNYFDVWGCGTTVTVSSGGGGSGGGGSGGGGSQAVVTQESALTTSPGETVTLTCRSSTGAVTTSNYANWVQEKPDHCFTGLIGGNNNRPPGVPARFSGSLIGDKAALTIAGTQTEDEAIYFCALWYSNHWVFGGGTRLTVLG
Kd (DOTA-Bn-biotin-Y [4]): 3.7 ± 3.6 nM
dissociation half-time (DOTA-Bn-biotin-Y [5]): 5.5 min
